Test system: B9 cells
Settings: Repl. 2; B9 cells

## CCCS(=O)(=O)Nc1ccc(F)c(C(=O)c2c[nH]c3ncc(-c4ccc(Cl)cc4)cc23)c1F [vemurafenib]
  probe 1430623_s_at response, Obfc2a (oligonucleotide/oligosaccharide-binding fold containing 2A): 1.88
  probe 1430700_a_at response, Pla2g7 (phospholipase A2, group VII (platelet-activating factor acetylhydrolase, plasma)): 2.18
  probe 1431416_a_at response, Jam2 (junction adhesion molecule 2): 1.93
  probe 1431422_a_at response, Dusp14 (dual specificity phosphatase 14): 1.93
  probe 1431611_a_at response, Cadm1 (cell adhesion molecule 1): 2.31
  probe 1431688_at response, LOC73899 (hypothetical LOC73899): 2.41
  probe 1431691_a_at response, Rab31 (RAB31, member RAS oncogene family): 2.04
  probe 1433909_at response, Syt17 (synaptotagmin XVII): 2.17
  probe 1434059_at response, B230312A22Rik (RIKEN cDNA B230312A22 gene): 2.10
  probe 1434092_at response, Atg9b (ATG9 autophagy related 9 homolog B (S. cerevisiae)): 1.89
  probe 1434109_at response, Sh3bgrl2 (SH3 domain binding glutamic acid-rich protein like 2): 2.33
  probe 1434252_at response, Tmcc3 (transmembrane and coiled coil domains 3): 1.95
  probe 1434601_at response, Amigo2 (adhesion molecule with Ig like domain 2): 1.89
  probe 1434957_at response, Cdon (cell adhesion molecule-related/down-regulated by oncogenes): 0.46
  probe 1435066_at response, Pitpnc1 (phosphatidylinositol transfer protein, cytoplasmic 1): 2.32
  probe 1435176_a_at response, Id2 (inhibitor of DNA binding 2): 0.46
  probe 1435330_at response, Pyhin1 (pyrin and HIN domain family, member 1): 2.38
  probe 1435331_at response, Pyhin1 (pyrin and HIN domain family, member 1): 3.71
  probe 1435460_at response, Prkg2 (protein kinase, cGMP-dependent, type II): 1.96
  probe 1435695_a_at response, Ggct (gamma-glutamyl cyclotransferase): 2.19
  probe 1436100_at response, Sh2d5 (SH2 domain containing 5): 2.35
  probe 1436329_at response, Egr3 (early growth response 3): 2.77
  probe 1436584_at response, Spry2 (sprouty homolog 2 (Drosophila)): 3.54
  probe 1436659_at response, Dclk1 (doublecortin-like kinase 1): 2.37
  probe 1436917_s_at response, Gpsm1 (G-protein signalling modulator 1 (AGS3-like, C. elegans)): 1.89
  probe 1436944_x_at response, Pisd /// Pisd-ps1 ///Pisd-ps3 (phosphatidylserine decarboxylase /// phosphatidylserine decarboxylase, pseudogene 1 /// phosphatidylserine decarboxylase, pseudogene 3): 0.48
  probe 1437092_at response, Clip4 (CAP-GLY domain containing linker protein family, member 4): 2.13
  probe 1437100_x_at response, Pim3 (proviral integration site 3): 2.05
  probe 1437199_at response: 4.31
  probe 1437271_at response, Clcf1 (cardiotrophin-like cytokine factor 1): 1.96
  probe 1437486_at response, Gprc5a (G protein-coupled receptor, family C, group 5, member A): 2.08
  probe 1437982_x_at response, Cox15 (COX15 homolog, cytochrome c oxidase assembly protein (yeast)): 0.45
  probe 1438038_at response, 4930402H24Rik (RIKEN cDNA 4930402H24 gene): 1.93
  probe 1438664_at response, Prkar2b (protein kinase, cAMP dependent regulatory, type II beta): 0.49
  probe 1438699_at response, Srd5a1 (steroid 5 alpha-reductase 1): 1.87
  probe 1439016_x_at response, Sprr2a (small proline-rich protein 2A): 0.42
  probe 1439109_at response, Ccdc68 (coiled-coil domain containing 68): 0.50
  probe 1439434_x_at response, Sh2d5 (SH2 domain containing 5): 1.91
  probe 1439797_at response, Ppard (peroxisome proliferator activator receptor delta): 2.32
  probe 1439878_at response, Ivl (involucrin): 2.90
  probe 1440169_x_at response, Ifnar2 (interferon (alpha and beta) receptor 2): 0.53
  probe 1440559_at response, Hmga2-ps1 (high mobility group AT-hook 2, pseudogene 1): 2.95
  probe 1441315_s_at response, Slc19a2 (solute carrier family 19 (thiamine transporter), member 2): 2.18
  probe 1441917_s_at response, Tmem40 (transmembrane protein 40): 2.11
  probe 1442350_at response: 2.13
  probe 1442363_at response, 1110012J17Rik (RIKEN cDNA 1110012J17 gene): 1.96
  probe 1443536_at response, Slc7a11 (solute carrier family 7 (cationic amino acid transporter, y+ system), member 11): 0.40
  probe 1445758_at response: 0.52
  probe 1446791_at response, Pi15 (peptidase inhibitor 15): 0.48
  probe 1447661_at response: 0.43
  probe 1447845_s_at response, Vnn1 (vanin 1): 0.46
  probe 1448364_at response, Ccng2 (cyclin G2): 2.01
  probe 1448532_at response, Prl8a9 (prolactin family8, subfamily a, member 9): 2.67
  probe 1448562_at response, Upp1 (uridine phosphorylase 1): 2.99
  probe 1448613_at response, Ecm1 (extracellular matrix protein 1): 1.89
  probe 1448617_at response, Cd53 (CD53 antigen): 1.99
  probe 1448810_at response, Gne (glucosamine): 2.16
  probe 1448855_at response, Rassf1 (Ras association (RalGDS/AF-6) domain family member 1): 2.05
  probe 1448894_at response, Akr1b8 (aldo-keto reductase family 1, member B8): 1.99
  probe 1448978_at response, Ngef (neuronal guanine nucleotide exchange factor): 3.24
  probe 1449038_at response, Hsd11b1 (hydroxysteroid 11-beta dehydrogenase 1): 2.51
  probe 1449125_at response, Tnfaip8l1 (tumor necrosis factor, alpha-induced protein 8-like 1): 2.10
  probe 1449133_at response, Sprr1a (small proline-rich protein 1A): 2.78
  probe 1449268_at response, Gfpt1 (glutamine fructose-6-phosphate transaminase 1): 2.36
  probe 1449297_at response, Casp12 (caspase 12): 0.47
  probe 1449334_at response, Timp3 (tissue inhibitor of metalloproteinase 3): 0.42
  probe 1449367_at response, Trex2 (three prime repair exonuclease 2): 4.68
  probe 1449408_at response, Jam2 (junction adhesion molecule 2): 2.08
  probe 1449545_at response, Fgf18 (fibroblast growth factor 18): 3.38
  probe 1449965_at response, Mcpt8 (mast cell protease 8): 2.61
  probe 1450241_a_at response, Evi2a (ecotropic viral integration site 2a): 4.27
  probe 1450262_at response, Clcf1 (cardiotrophin-like cytokine factor 1): 2.12
  probe 1450276_a_at response, Scin (scinderin): 2.63
  probe 1450376_at response, Mxi1 (Max interacting protein 1): 2.00
  probe 1450430_at response, Mrc1 (mannose receptor, C type 1): 2.97
  probe 1450501_at response, Itga2 (integrin alpha 2): 2.48
  probe 1450791_at response, Nppb (natriuretic peptide precursor type B): 4.39
  probe 1450976_at response, Ndrg1 (N-myc downstream regulated gene 1): 2.47
  probe 1451006_at response, Xdh (xanthine dehydrogenase): 0.39
  probe 1451308_at response, Elovl4 (elongation of very long chain fatty acids (FEN1/Elo2, SUR4/Elo3, yeast)-like 4): 2.21
  probe 1451446_at response, Antxr1 (anthrax toxin receptor 1): 0.43
  probe 1451501_a_at response, Ghr (growth hormone receptor): 2.25
  probe 1451529_at response, Sgtb (small glutamine-rich tetratricopeptide repeat (TPR)-containing, beta): 2.47
  probe 1451798_at response, Il1rn (interleukin 1 receptor antagonist): 2.76
  probe 1452058_a_at response, Rnfl1 (ring finger protein 11): 2.02
  probe 1452087_at response, Epsti1 (epithelial stromal interaction 1 (breast)): 2.32
  probe 1452203_at response, Obfc2a (oligonucleotide/oligosaccharide-binding fold containing 2A): 1.90
  probe 1452352_at response, Ctla2b (cytotoxic T lymphocyte-associated protein 2 beta): 2.30
  probe 1452521_a_at response, Plaur (plasminogen activator, urokinase receptor): 2.09
  probe 1453055_at response, Sema6d (sema domain, transmembrane domain (TM), and cytoplasmic domain, (semaphorin) 6D): 4.08
  probe 1453278_a_at response, Clip4 (CAP-GLY domain containing linker protein family, member 4): 1.99
  probe 1453345_at response, Nipal1 (NIPA-like domain containing 1): 3.92
  probe 1454048_a_at response, 4931408A02Rik /// LOC630876 (RIKEN cDNA 4931408A02 gene /// similar to Protein C21orf63 homolog precursor): 0.46
  probe 1454254_s_at response, 1600029D21Rik (RIKEN cDNA 1600029D21 gene): 2.18
  probe 1454649_at response, Srd5a1 (steroid 5 alpha-reductase 1): 2.08
  probe 1454699_at response, LOC100047324 /// Sesn1 (similar to Sesn1 protein /// sestrin 1): 0.37
  probe 1454710_at response, Spink2 (serine peptidase inhibitor, Kazal type 2): 2.03
  probe 1454780_at response, Galntl4 (UDP-N-acetyl-alpha-D-galactosamine:polypeptide N-acetylgalactosaminyltransferase-like 4): 0.44
  probe 1454877_at response, Sertad4 (SERTA domain containing 4): 0.42
  probe 1455104_at response, Mxd1 (MAX dimerization protein 1): 2.85
  probe 1455241_at response, BC037703 (cDNA sequence BC037703): 0.50
  probe 1455299_at response, Vgll3 (vestigial like 3 (Drosophila)): 0.44
  probe 1455981_at response, Gm11263 /// Gm12242 /// Gm13654 /// Gm14138 /// Gm16406 /// Gm4796 /// Gm6476 /// Gm9143 /// LOC100043734 /// LOC236932 /// LOC623245 /// LOC639593 /// Rps6: 0.46
  probe 1456150_at response, Jhdm1d (jumonji C domain-containing histone demethylase 1 homolog D (S. cerevisiae)): 1.99
  probe 1456174_x_at response, Ndrg1 (N-myc downstream regulated gene 1): 2.00
  probe 1456248_at response, Lce3f /// LOC630971 (late cornified envelope 3F /// hypothetical protein LOC630971): 2.45
  probe 1456284_at response, Tmem171 (transmembrane protein 171): 1.95
  probe 1456321_at response, Nipal1 (NIPA-like domain containing 1): 2.99
  probe 1456725_x_at response, Ezr (ezrin): 0.49
  probe 1456874_at response, Flrt2 (fibronectin leucine rich transmembrane protein 2): 0.54
  probe 1457042_at response, AI256396 (EST AI256396): 0.52
  probe 1457568_at response, Hnrnpd (heterogeneous nuclear ribonucleoprotein D): 0.50
  probe 1457666_s_at response, Ifi202b (interferon activated gene 202B): 3.89
  probe 1460220_a_at response, Csf1 (colony stimulating factor 1 (macrophage)): 0.38
  probe 1460302_at response, Thbs1 (thrombospondin 1): 0.50
  probe 1460472_at response, Cdk3 (cyclin-dependent kinase 3): 1.99
  probe 1460521_a_at response, Obfc2a (oligonucleotide/oligosaccharide-binding fold containing 2A): 2.32
  probe 1460695_a_at response, 2010111I01Rik (RIKEN cDNA 2010111I01 gene): 0.48

From patent US10421761B2, “Compounds for kinase modulation, and indications therefor” (Plexxikon Inc., priority 2013, dated 2019)
